Assay results from PMC6270570, “New Flurbiprofen Derivatives: Synthesis, Membrane Affinity and Evaluation of in Vitro Effect on β-Amyloid Levels” (Molecules, 2013).
Read-outs that look alike come from different tables or passages of the source. Marks after values point to notes of the source that are not given here.

What was measured:
[1] = RP-HPLC retention factor extrapolated to 100% water (KC18/W); format: physicochemical; conditions: for KC18/W (retention factor extrapolated to 100% water): RP-HPLC, acetonitrile/water mixtures; for chromatographic logP: by comparison with KC18/W and logP of nisoldipine and lacidipine, read-out: logP calculated from KC18/W
Description: Similarly, due to their high lipophilicity, experimental n-octanol/water lipophilicity values of enantiomers 8/9 were determined by RP-HPLC because their characterization through the “classical” shake-flask method was expected to be difficult and scarcely reproducible. The retention factor, determined in acetonitrile/water mixtures and extrapolated to 100% water (KC18/W) for enantiomers 8/9 was 3.94 (data not shown).

[2] = IAM-HPLC affinity for membrane phospholipids (logKIAM/W); format: physicochemical; conditions: IAM.PC.MG column, pH 7.0 phosphate buffer/acetonitrile, extrapolated to 100% aqueous eluent
Description: n-Octanol/water partition coefficients were theoretically calculated by the program clogP for windows version 2.0 (Biobyte Corp., Claremont, CA, USA). Affinity for membrane phospholipids, so called “phospholipophilicity”, was measured by HPLC on a phospholipid stationary phase. […] liquid chromatograph (Waters-Millipore, Milford, MA, USA), equipped with a 7125 Rheodyne injection valve and a 486 UV detector (Waters) set at 246 nm, was used. The column was an IAM.PC.MG (Immobilized Artificial Membrane-PhosphatidylCholine-MethylGlycolate) (4.6 mm × 150 mm) (Regis Chemical Company, Morton Grove, IL, USA). The mobile phase was 0.01 M phosphate buffer at pH 7.0 and acetonitrile at percentages ranging from 10 to 35 percent (v/v) (from 1.0 to 4.0 mL/min). The chromatography was carried out at room temperature. All samples were dissolved in methanol (ca. 10^-3 M) and 20 μL samples were injected in the chromatograph. Chromatographic retention data are expressed as the logarithm of the capacity factor, log k, defined as: log k = log [(tr - t0)/t0] (1) where tr and t0 are the retention times of the drug and a non-retained compound (citric acid), respectively. The log k values relative to 100% aqueous eluent (logKIAM/W) were calculated by performing a polycratic method of extrapolation. Each compound was eluted with at least three different mobile phases containing acetonitrile in different percentages (φ). […] All values of log k reported are the average of at least three measurements; the 95% confidence interval never exceeded 0.04 for each log k value. Possible occurrence of retention changes due to column aging was monitored by checking the retention times of five test compounds (amlodipine, p-nitroaniline, toluene, isradipine, and ketoprofen).

[3] = set-up: method as in doi:10.1016/0223-5234(96)80368-0; conditions: n-octanol/water; cited from earlier work
[4] = PAMPA-GI permeability (egg lecithin in dodecane); format: in vitro ADME; conditions: read-out: PAMPA-GI Pe
Description: (§1) The following protocol was applied to measure the Pe through the artificial membrane to predict oral absorption and BBB permeation. In order to study the g.i. permeability, a 2% solution (w/v) of egg lecithin (phosphatidyl choline > 98%, PC) in dodecane was employed as an artificial membrane solution. The effective permeability of BBB was measured using phospholipid mixture from porcine polar brain lipid extract, composed by PC 12.6%, phosphatidylethanolamine (PE) 33.1%, phosphatidylserine (PS) 18.5%, phosphatidylinositol (PI) 4.1%, phospatidic acid (PA) 0.8% and 30.9% of other compounds (purchased from Avantis Polar Lipids, Alabaster, AL, USA). Each donor filtration plate well was then impregnated with 5 µL of this solution carefully, and immediately after 150 µL of phosphate buffer (pH 7.4/pH 6.5), containing co-drug 1 500 µM and iPrOH 20% as co-solvent was added. Then the drug-filled donor plate was placed into the acceptor plate that had been prefilled with the same buffer (300 µL) as acceptor solution. After plate lid was replaced, the resulting assembled donor-acceptor plates were incubated at r.t. for 2 h for PAMPA-GI and 18 h for PAMPA-BBB, following which drugs concentration in the acceptor and donor solutions were determined by HPLC [37].
(§2) Log Pe can be calculated from the equation below: [drawing 10] (2) where Pe is the effective permeability coefficient (cm x s^−1), VD is volume of donor compartment (0.15 cm^3) and VA is volume of acceptor compartment (0.30 cm^3), A is effective filter area (0.28 cm^2), t is incubation time for the assay (s), Cacceptor is the concentration of the compound in the acceptor compartment at the completion of the assay, and Cequilibrium is the concentration of compound at theoretical equilibrium.

[5] = PAMPA-BBB permeability (porcine polar brain lipid extract); format: in vitro ADME; conditions: pH 7.4, 18 h of incubation; for Papp at 18 h, 500 µM: PAMPA, read-out: PAMPA-BBB Pe
Description: as §1, §2

[6] = tested on: Aβ-42; assay: Western blotting of Aβ-42 expression in CTXTNA2 astrocytes (in vitro γ-secretase activity); format: cell-based, rat; conditions: 24 h
Description: CTXTNA2 cell line, established from primary cultures of type 1 astrocytes from brain frontal cortex tissue of 1 day old rats, was obtained by ECACC (Salisbury, UK). Cells have been maintained in DMEM, 10% FBS at 37 °C, 5% CO2 until sub-confluence and incubated for 24 h with a DMSO solution of drug (concentrations ranging from 1 µM to 100 µM). For detection of cell viability, a Trypan blue dye exclusion test has been performed.
Cell lysates (20 µg) have been electrophoresed and transferred to nitrocellulose membrane. Nitrocellulose membranes, blocked in 5% non-fat milk, 10 mmol/L Tris pH 7.5, 100 mmol/L NaCl, 0.1% Tween-20, have been probed with mouse APP (Millipore, Billerica, MA, USA) and Aβ (Alpha Diagnostic Intl, San Antonio, TX, USA) monoclonal antibodies (Santa Cruz Biotechnology, Santa Cruz, CA, USA), then incubated in the presence of specific enzyme conjugated IgG horseradish peroxidase. Immunoreactive bands have been detected by ECL detection system (Amersham Intl., Buckinghamshire, UK) and analysed by densitometry. Densitometric values, expressed as Integrated Optical Intensity (I.O.I.), have been estimated in a CHEMIDOC XRS system by the QuantiOne 1-D analysis software (BioRad, Richmond, CA, USA). Values obtained have been normalized basing on densitometric values of internal β tubulin. Statistical analysis has been performed using the analysis of variance (ANOVA). Results have been expressed as mean ± SD. Values of p < 0.05 have been considered statistically significant.

[7] = tested on: APP; conditions: 24 h
Description: For detection of cell viability, a Trypan blue dye exclusion test has been performed [33].
Cell lysates (20 µg) have been electrophoresed and transferred to nitrocellulose membrane. […] Immunoreactive bands have been detected by ECL detection system (Amersham Intl., Buckinghamshire, UK) and analysed by densitometry. Densitometric values, expressed as Integrated Optical Intensity (I.O.I.), have been estimated in a CHEMIDOC XRS system by the QuantiOne 1-D analysis software (BioRad, Richmond, CA, USA). Values obtained have been normalized basing on densitometric values of internal β tubulin. Statistical analysis has been performed using the analysis of variance (ANOVA). Results have been expressed as mean ± SD. Values of p < 0.05 have been considered statistically significant.

| SMILES | KC18/W (retention factor extrapolated to 100% water) [1] | LogKIAM/W [2] | logP (experimentally determined values) [3] | Papp at 2 h, 500 µM ([4]; pH 6.5, 2 h of incubation) [×10⁻⁶ cm/s] | Papp at 2 h, 500 µM ([4]; pH 7.4, 2 h of incubation) [×10⁻⁶ cm/s] | Papp at 18 h, 500 µM [5] [×10⁻⁶ cm/s] | Aβ-42 production, effect in words ([6]; 1 µM to 100 µM, without affecting the APP level) | Expression of Aβ-42 ([6]; 1 µM) | Expression of Aβ-42 ([6]; 10 µM) | Expression of Aβ-42 ([6]; 100 µM) | melting point [°C] | Expression of APP ([7]; 1 µM) | Expression of APP ([7]; 10 µM) | Expression of APP ([7]; 100 µM) | PAMPA-BBB Pe [5] | chromatographic logP [1] |
| --- | --- | --- | --- | --- | --- | --- | --- | --- | --- | --- | --- | --- | --- | --- | --- | --- |
| CCOC(=O)C1=C(C)NC(C)=C(C(=O)OCC)C1c1ccccc1/C=C/C(=O)OC(C)(C)C [Lacidipine, reference compound] | 4.01 | 3.52 | 5.56 ^a | – | – | – | – | – | – | – | – | – | – | – | – | – |
| C[C@H](NC(=O)[C@@H](C)c1ccc(-c2ccccc2)c(F)c1)C(=O)N[C@H](C(=O)OC(C)(C)C)c1ccccc1 [Compound 2, tert-Butyl(2S)-({N-[(2S)-2-(2-fluoro-1,1'-biphenyl-4-yl)propanoyl]-L-alanyl}amino)(phenyl)acetate] | – | 3.80 | – | 3.6 | 4.1 | 2.1 | highly effective | (20.0 ± 1.1) × 10^−2 | (12.1 ± 0.6) × 10^−2 | (8.4 ± 0.2) × 10^−2 | 106 to 108 | (93.1 ± 2.6) × 10^−2 | (93.3 ± 3.5) × 10^−2 | (63.6 ± 2.8) × 10^−2 | – | – |
| C[C@H](NC(=O)Cc1ccc(-c2ccccc2)c(F)c1)C(=O)N[C@H](C(=O)OC(C)(C)C)c1ccccc1 [Compound 3, tert-butyl (2S)-({N-[(2-fluoro-1,1'-biphenyl-4-yl)acetyl]-L-alanyl}amino)(phenyl)acetate] | – | 3.64 | – | 2.1 | 2 | – | – | (8.8. ± 0.4) × 10^−2 | (10.5 ± 0.4) × 10^−2 | (45.8. ± 1.3) × 10^−2 | 104 to 106 | (64.1 ± 2.3) × 10^−2 | (72.2 ± 2.1) × 10^−2 | (105 ± 3.2) × 10^−2 | 2.0 10^−6 cm/s | – |
| COC(=O)C1=C(C)NC(C)=C(C(=O)OCC(C)C)C1c1ccccc1[N+](=O)[O-] (stereo not shown) [Nisoldipine, reference compound] | 2.99 | 2.63 | 4.53 ^a | – | – | – | – | – | – | – | – | – | – | – | – | – |
| CN1C(=O)[C@H](NC(=O)Cc2ccc(-c3ccccc3)c(F)c2)c2ccccc2-c2ccccc21 [Compound 8, 2-(2-Fluoro-1,1'-biphenyl-4-yl)-N-[(7R)-5-methyl-6-oxo-6,7-dihydro-5H-dibenzo[b,d]azepin-7-yl]-acetamide] | 3.94 | 3.58 | – | 2.5 | 2.6 | 2.3 | – | (31.1 ± 0.9) × 10^−2 | (25.0 ± 1.0) × 10^−2 | (35.2 ± 1.1) × 10^−2 | 96 to 100 | (82.3 ± 3.2) × 10^−2 | (68.1 ± 3.2) × 10^−2 | (94.4 ± 4.2) × 10^−2 | – | 5.49 |
| CN1C(=O)[C@@H](NC(=O)Cc2ccc(-c3ccccc3)c(F)c2)c2ccccc2-c2ccccc21 [Compound 9, 2-(2-Fluoro-1,1'-biphenyl-4-yl)-N-[(7S)-5-methyl-6-oxo-6,7-dihydro-5H-dibenzo[b,d]azepin-7-yl]-acetamide] | 3.94 | 3.58 | – | 2.5 | 2.6 | 2.3 | – | (43.2 ± 2.1) × 10^−2 | (38.4 ± 1.0) × 10^−2 | (14.0 ± 0.5) × 10^−2 | 96 to 100 | (68.7 ± 2.2) × 10^−2 | (69.2 ± 1.4) × 10^−2 | (94.3 ± 3.2) × 10^−2 | – | 5.49 |
